Results as given in PubChem BioAssay AID1259407 (Chemical Carcinogenesis Research Information System (CCRIS), 2018).
Calls of active or inactive are those of the source. No rule for the calls is given here.

Tested on: CCRIS mutagenicity, Ames/micronucleus/aberration tests
Experiment: CCRIS mutagenicity studies
[1] = Test System: AMES SALMONELLA TYPHIMURIUM, Strain/Indicator: TA98, Metabolic Activation: NONE, Method: PREINCUBATION
[2] = Test System: AMES SALMONELLA TYPHIMURIUM, Strain/Indicator: TA100, Metabolic Activation: NONE, Method: PREINCUBATION
[3] = Test System: AMES SALMONELLA TYPHIMURIUM, Strain/Indicator: TA1535, Metabolic Activation: NONE, Method: PREINCUBATION
[4] = Test System: AMES SALMONELLA TYPHIMURIUM, Strain/Indicator: TA1537, Metabolic Activation: NONE, Method: PREINCUBATION
[5] = Test System: AMES SALMONELLA TYPHIMURIUM, Strain/Indicator: TA98, Metabolic Activation: NONE, Method: STANDARD PLATE
[6] = Test System: AMES SALMONELLA TYPHIMURIUM, Strain/Indicator: TA100, Metabolic Activation: NONE, Method: STANDARD PLATE

With `COc1ccc2cc1Oc1ccc(cc1)C[C@H]1c3c(cc4c(c3Oc3cc5c(cc3OC)CCN(C)[C@@H]5C2)OCO4)CCN1C` the mutagenic call [1] was “inactive; negative”, the mutagenic call (Test System: AMES SALMONELLA TYPHIMURIUM, Strain/Indicator: TA98, Metabolic Activation: RAT LIVER S-9, PHENOBARBITAL, 5,6-BENZOFLAVONE, Method: PREINCUBATION) was “active; positive” and the mutagenic call [2] was “inactive; negative”. For the same compound, the mutagenic call (Test System: AMES SALMONELLA TYPHIMURIUM, Strain/Indicator: TA100, Metabolic Activation: RAT LIVER S-9, PHENOBARBITAL, 5,6-BENZOFLAVONE, Method: PREINCUBATION) was “active; positive”, the mutagenic call [3] was “inactive; negative” and the mutagenic call (Test System: AMES SALMONELLA TYPHIMURIUM, Strain/Indicator: TA1535, Metabolic Activation: RAT LIVER S-9, PHENOBARBITAL, 5,6-BENZOFLAVONE, Method: PREINCUBATION) was “active; positive”. The mutagenic call [4] was “inactive; negative”, the mutagenic call (Test System: AMES SALMONELLA TYPHIMURIUM, Strain/Indicator: TA1537, Metabolic Activation: RAT LIVER S-9, PHENOBARBITAL, 5,6-BENZOFLAVONE, Method: PREINCUBATION) was “active; positive” and the mutagenic call (Test System: ESCHERICHIA COLI, Strain/Indicator: WP2 UVR A, Metabolic Activation: NONE, Method: PREINCUBATION) was “inactive; negative”. For the same compound, the mutagenic call (Test System: ESCHERICHIA COLI, Strain/Indicator: WP2 UVR A, Metabolic Activation: RAT LIVER S-9, PHENOBARBITAL, 5,6-BENZOFLAVONE, Method: PREINCUBATION) was “inactive; negative” and the mutagenic call (Test System: UDS RAT HEPATOCYTES, Strain/Indicator: THYMIDINE INCORPORATION, Metabolic Activation: NONE, Method: AUTORADIOGRAPHY) was “active; positive”.
In the case of `CCCCN(CC)CC`, the mutagenic call (Test System: AMES SALMONELLA TYPHIMURIUM, Strain/Indicator: TA97, Metabolic Activation: HAMSTER, LIVER, S-9, AROCLOR 1254 (10 OR 30%), Method: PREINCUBATION) is reported as “inactive; negative”, the mutagenic call (Test System: AMES SALMONELLA TYPHIMURIUM, Strain/Indicator: TA97, Metabolic Activation: NONE, Method: PREINCUBATION) is reported as “inactive; negative” and the mutagenic call (Test System: AMES SALMONELLA TYPHIMURIUM, Strain/Indicator: TA97, Metabolic Activation: RAT, LIVER, S-9, AROCLOR 1254 (10 OR 30%), Method: PREINCUBATION) is reported as “inactive; negative”. The mutagenic call (Test System: AMES SALMONELLA TYPHIMURIUM, Strain/Indicator: TA98, Metabolic Activation: HAMSTER, LIVER, S-9, AROCLOR 1254 (10 OR 30%), Method: PREINCUBATION) was “inactive; negative”, the mutagenic call [1] was “inactive; negative” and the mutagenic call (Test System: AMES SALMONELLA TYPHIMURIUM, Strain/Indicator: TA98, Metabolic Activation: RAT, LIVER, S-9, AROCLOR 1254 (10 OR 30%), Method: PREINCUBATION) was “inactive; negative”. For the same compound, the mutagenic call (Test System: AMES SALMONELLA TYPHIMURIUM, Strain/Indicator: TA100, Metabolic Activation: HAMSTER, LIVER, S-9, AROCLOR 1254 (10 OR 30%), Method: PREINCUBATION) was “inactive; negative”, the mutagenic call [2] was “inactive; negative” and the mutagenic call (Test System: AMES SALMONELLA TYPHIMURIUM, Strain/Indicator: TA100, Metabolic Activation: RAT, LIVER, S-9, AROCLOR 1254 (10 OR 30%), Method: PREINCUBATION) was “inactive; negative”. For the same compound, the mutagenic call (Test System: AMES SALMONELLA TYPHIMURIUM, Strain/Indicator: TA1535, Metabolic Activation: HAMSTER, LIVER, S-9, AROCLOR 1254 (10 OR 30%), Method: PREINCUBATION) was “inactive; negative”, the mutagenic call [3] was “inactive; negative” and the mutagenic call (Test System: AMES SALMONELLA TYPHIMURIUM, Strain/Indicator: TA1535, Metabolic Activation: RAT, LIVER, S-9, AROCLOR 1254 (10 OR 30%), Method: PREINCUBATION) was “inactive; negative”.
For `N=C(N)c1ccc(-c2cc3ccc(C(=N)N)cc3s2)cc1`, the mutagenic call [5] was “inactive; negative”, the mutagenic call (Test System: AMES SALMONELLA TYPHIMURIUM, Strain/Indicator: TA98, Metabolic Activation: RAT, LIVER, S-9, PHENOBARBITAL, Method: STANDARD PLATE) was “inactive; negative” and the mutagenic call [6] was “inactive; negative”. The mutagenic call (Test System: AMES SALMONELLA TYPHIMURIUM, Strain/Indicator: TA100, Metabolic Activation: RAT, LIVER, S-9, PHENOBARBITAL, Method: STANDARD PLATE) was “inactive; negative”.
`Nc1nc(-c2cccnc2)cs1` was tested, and the mutagenic call (Test System: AMES SALMONELLA TYPHIMURIUM, Strain/Indicator: TA1538, Metabolic Activation: RAT, LIVER, S-9, AROCLOR 1254, Method: STANDARD PLATE) was “inactive; negative”.
In the case of `O=C1c2c(Br)c(Br)c(Br)c(Br)c2C(=O)N1CCN1C(=O)c2c(Br)c(Br)c(Br)c(Br)c2C1=O`, the mutagenic call (Test System: AMES SALMONELLA TYPHIMURIUM, Strain/Indicator: TA98, Metabolic Activation: HAMSTER, LIVER, S-9, AROCLOR 1254 (10%), Method: PREINCUBATION) is reported as “inactive; negative”, the mutagenic call [1] is reported as “inactive; negative” and the mutagenic call (Test System: AMES SALMONELLA TYPHIMURIUM, Strain/Indicator: TA98, Metabolic Activation: RAT, LIVER, S-9, AROCLOR 1254 (10%), Method: PREINCUBATION) is reported as “inactive; negative”. For the same compound, the mutagenic call (Test System: AMES SALMONELLA TYPHIMURIUM, Strain/Indicator: TA100, Metabolic Activation: HAMSTER, LIVER, S-9, AROCLOR 1254 (10%), Method: PREINCUBATION) was “inactive; negative”, the mutagenic call [2] was “inactive; negative” and the mutagenic call (Test System: AMES SALMONELLA TYPHIMURIUM, Strain/Indicator: TA100, Metabolic Activation: RAT, LIVER, S-9, AROCLOR 1254 (10%), Method: PREINCUBATION) was “inactive; negative”. For the same compound, the mutagenic call (Test System: AMES SALMONELLA TYPHIMURIUM, Strain/Indicator: TA1535, Metabolic Activation: HAMSTER, LIVER, S-9, AROCLOR 1254 (10%), Method: PREINCUBATION) was “inactive; negative”, the mutagenic call [3] was “inactive; negative” and the mutagenic call (Test System: AMES SALMONELLA TYPHIMURIUM, Strain/Indicator: TA1535, Metabolic Activation: RAT, LIVER, S-9, AROCLOR 1254 (10%), Method: PREINCUBATION) was “inactive; negative”. For the same compound, the mutagenic call (Test System: AMES SALMONELLA TYPHIMURIUM, Strain/Indicator: TA1537, Metabolic Activation: HAMSTER, LIVER, S-9, AROCLOR 1254 (10%), Method: PREINCUBATION) was “inactive; negative”, the mutagenic call [4] was “inactive; negative” and the mutagenic call (Test System: AMES SALMONELLA TYPHIMURIUM, Strain/Indicator: TA1537, Metabolic Activation: RAT, LIVER, S-9, AROCLOR 1254 (10%), Method: PREINCUBATION) was “inactive; negative”.
With `Cn1ccc2ccc3ccc4ccc(O)cc4c3c21` the mutagenic call (Test System: AMES SALMONELLA TYPHIMURIUM, Strain/Indicator: TA98, Metabolic Activation: RAT, LIVER, S-9, AROCLOR, Method: STANDARD PLATE) was “active; positive”.
With `COC(=O)/C(C#N)=C/c1ccc([N+](=O)[O-])o1` the mutagenic call [1] was “active; positive”.
For `ClC[C@@H]1CO1`, the mutagenic call [2] was “active; positive”, the mutagenic call [6] was “active; positive” and the mutagenic call (Test System: AMES SALMONELLA TYPHIMURIUM, Strain/Indicator: TA100, Metabolic Activation: RAT, LIVER, S-9, PCB, Method: PREINCUBATION) was “active; positive”.
For `Clc1cnc(Oc2ccc(Oc3ncc(Cl)cc3Cl)cc2)c(Cl)c1`, the mutagenic call [5] was “inactive; negative”, the mutagenic call (Test System: AMES SALMONELLA TYPHIMURIUM, Strain/Indicator: TA98, Metabolic Activation: RAT, LIVER, S-9, PHENOBARBITAL AND 5,6-BENZOFLAVONE, Method: STANDARD PLATE) was “inactive; negative” and the mutagenic call (Test System: AMES SALMONELLA TYPHIMURIUM, Strain/Indicator: TA98, Method: STANDARD PLATE) was “inactive; negative”. For the same compound, the mutagenic call [6] was “inactive; negative”, the mutagenic call (Test System: AMES SALMONELLA TYPHIMURIUM, Strain/Indicator: TA100, Metabolic Activation: RAT, LIVER, S-9, PHENOBARBITAL AND 5,6-BENZOFLAVONE, Method: STANDARD PLATE) was “inactive; negative” and the mutagenic call (Test System: AMES SALMONELLA TYPHIMURIUM, Strain/Indicator: TA100, Method: STANDARD PLATE) was “inactive; negative”. For the same compound, the mutagenic call (Test System: AMES SALMONELLA TYPHIMURIUM, Strain/Indicator: TA102, Metabolic Activation: NONE, Method: STANDARD PLATE) was “inactive; negative”, the mutagenic call (Test System: AMES SALMONELLA TYPHIMURIUM, Strain/Indicator: TA102, Metabolic Activation: RAT, LIVER, S-9, PHENOBARBITAL AND 5,6-BENZOFLAVONE, Method: STANDARD PLATE) was “inactive; negative” and the mutagenic call (Test System: AMES SALMONELLA TYPHIMURIUM, Strain/Indicator: TA102, Method: STANDARD PLATE) was “inactive; negative”.
